Assay [1] has as its target T1, Cyclooxygenase (Rattus norvegicus, UniProt P35355+Q63921).
T1 sequence (P35355 whole entry): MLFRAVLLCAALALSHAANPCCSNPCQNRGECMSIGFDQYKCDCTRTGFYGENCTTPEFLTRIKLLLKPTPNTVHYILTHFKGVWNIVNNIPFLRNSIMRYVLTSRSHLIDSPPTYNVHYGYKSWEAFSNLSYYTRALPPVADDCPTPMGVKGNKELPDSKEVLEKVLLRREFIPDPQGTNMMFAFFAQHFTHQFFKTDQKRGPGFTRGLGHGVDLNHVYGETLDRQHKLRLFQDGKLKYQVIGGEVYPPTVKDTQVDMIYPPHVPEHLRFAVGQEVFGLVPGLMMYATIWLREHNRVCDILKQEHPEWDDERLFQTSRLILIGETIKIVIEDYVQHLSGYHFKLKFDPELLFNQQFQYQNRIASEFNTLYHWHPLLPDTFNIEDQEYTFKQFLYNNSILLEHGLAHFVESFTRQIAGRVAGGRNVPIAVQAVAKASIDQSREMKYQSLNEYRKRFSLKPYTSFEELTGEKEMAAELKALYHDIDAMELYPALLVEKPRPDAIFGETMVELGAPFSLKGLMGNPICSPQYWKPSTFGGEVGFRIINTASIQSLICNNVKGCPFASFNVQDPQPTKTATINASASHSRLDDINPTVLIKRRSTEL
T1 sequence (Q63921 whole entry): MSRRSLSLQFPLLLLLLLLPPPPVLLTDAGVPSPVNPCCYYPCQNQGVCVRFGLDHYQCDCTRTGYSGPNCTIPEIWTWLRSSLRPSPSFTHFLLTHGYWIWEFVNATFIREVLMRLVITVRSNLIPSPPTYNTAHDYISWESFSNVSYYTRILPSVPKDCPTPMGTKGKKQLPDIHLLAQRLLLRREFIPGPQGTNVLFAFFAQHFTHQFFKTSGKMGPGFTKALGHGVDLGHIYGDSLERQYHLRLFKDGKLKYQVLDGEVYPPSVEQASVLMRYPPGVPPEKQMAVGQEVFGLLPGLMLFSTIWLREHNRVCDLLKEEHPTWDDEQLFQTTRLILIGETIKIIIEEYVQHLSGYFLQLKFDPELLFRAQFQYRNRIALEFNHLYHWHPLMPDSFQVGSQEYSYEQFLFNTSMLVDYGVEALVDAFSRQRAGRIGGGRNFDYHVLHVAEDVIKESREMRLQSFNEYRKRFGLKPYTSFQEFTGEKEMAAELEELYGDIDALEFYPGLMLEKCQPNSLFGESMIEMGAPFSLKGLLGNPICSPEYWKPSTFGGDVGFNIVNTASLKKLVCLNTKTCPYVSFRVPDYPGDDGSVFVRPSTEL
The experiment in a line: Compound was evaluated for its inhibitory activity against CO(cyclooxygenase). It is filed as protein assay.

The target of assay [2] is T2, Cyclooxygenase (Rattus norvegicus) (UniProt P35355+Q63921). The experiment in a line: Compound was evaluated for its inhibitory activity against CO(cyclooxygenase) at 10 uM concentration in intact RBL-1 cell line assay. Format: cell-based.
The target in assay [3] is T3, Polyunsaturated fatty acid 5-lipoxygenase (Rattus norvegicus) (UniProt P12527).
T3 sequence (whole entry): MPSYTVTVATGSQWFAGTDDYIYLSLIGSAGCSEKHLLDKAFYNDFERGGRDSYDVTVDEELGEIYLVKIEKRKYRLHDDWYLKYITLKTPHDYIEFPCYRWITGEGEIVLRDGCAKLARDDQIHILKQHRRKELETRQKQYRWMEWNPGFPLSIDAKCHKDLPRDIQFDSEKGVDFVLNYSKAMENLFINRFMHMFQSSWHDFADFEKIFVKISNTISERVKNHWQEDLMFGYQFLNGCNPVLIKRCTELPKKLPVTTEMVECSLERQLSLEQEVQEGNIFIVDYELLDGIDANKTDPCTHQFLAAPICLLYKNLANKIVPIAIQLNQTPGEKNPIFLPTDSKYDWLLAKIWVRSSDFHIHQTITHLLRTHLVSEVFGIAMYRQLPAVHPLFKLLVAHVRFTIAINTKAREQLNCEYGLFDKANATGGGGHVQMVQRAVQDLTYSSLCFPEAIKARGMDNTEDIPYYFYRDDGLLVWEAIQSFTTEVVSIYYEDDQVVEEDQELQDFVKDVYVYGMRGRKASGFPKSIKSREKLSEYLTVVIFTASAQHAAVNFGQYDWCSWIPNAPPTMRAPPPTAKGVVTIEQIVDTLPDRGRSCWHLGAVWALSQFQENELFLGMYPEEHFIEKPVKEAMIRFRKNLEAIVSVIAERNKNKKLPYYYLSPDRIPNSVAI
Put plainly: Compound was evaluated for its inhibitory activity against 5-LO (5-lipoxygenase) at 10 uM concentration in intact RBL-1 cell line assay. Format: cell-based.

In assay [4] the target is T1, Cyclooxygenase. Put plainly: Compound was evaluated for its inhibitory activity against CO(cyclooxygenase) in intact RBL-1 cell line assay. It is filed as cell-based.
The target in assay [5] is T4, Polyunsaturated fatty acid 5-lipoxygenase (Rattus norvegicus, UniProt P12527).
T4 sequence (P12527 whole entry): T3 sequence (whole entry)
Put plainly: Compound was evaluated for its inhibitory activity against 5-LO (5-lipoxygenase) in intact RBL-1 cell line assay. Format: cell-based.

The target in assay [6] is T2, Cyclooxygenase (Rattus norvegicus). Put plainly: Compound was evaluated for its inhibitory activity against CO(cyclooxygenase) at 10 uM concentration in intact RBL-1 cell line assay; Less than 5% inhibition at 10 uM reported as not active. Format: cell-based.
For assay [7], the target named is T3, Polyunsaturated fatty acid 5-lipoxygenase (Rattus norvegicus). The experiment in a line: Compound was evaluated for its inhibitory activity against 5-LO (5-lipoxygenase) at 10 uM concentration in intact RBL-1 cell line assay; Less than 5% inhibition at 10 uM reported as not active. It is filed as cell-based.

Usually IC50 stands for the concentration at which inhibition is half-maximal. A low value points to greater potency in that assay. In general, inhibition refers to the drop in the measured response relative to a control, in per cent.

Activity calls are given as the source filed them. The calls are words filed in the database; no cut-off is given here.

Consider `Cc1ccc(Cl)c(Nc2ccccc2/C=C2\SC(=S)NC2=O)c1Cl`, for which, in assay [1], the IC50 was found to be 6000 nM.

With `Cc1ccc(Cl)c(Nc2ccccc2/C=C2\SC(N)=NC2=O)c1Cl`, the inhibition in assay [2] came to 20%; in assay [3] it was 35%.

On to `Cc1ccc(Cl)c(Nc2ccccc2/C=C2\SC(NC#N)=NC2=O)c1Cl`, for which the IC50 was found to be 10200 nM in assay [4] and 1500 nM in assay [5].

For the compound `Cc1ccc(Cl)c(Nc2ccccc2/C=C2\SC(=O)NC2=O)c1Cl`, in assay [6], the inhibition result was “inactive”. The inhibition in assay [3] came to 30%.

In assay [2], `Cc1ccc(Cl)c(Nc2ccccc2/C=C2\SC(=S)N(CC(=O)O)C2=O)c1Cl` yielded an inhibition of 33%.

On to `COc1ccc2c(c1)c(CC(=O)O)c(C)n2C(=O)c1ccc(Cl)cc1` [INDOMETHACIN], for which the half-inhibitory concentration (IC50) in assay [5] is more than 100000 nM.

With `COc1ccc2c(c1)c(/C=C1/SC(=S)NC1=O)c(C)n2C(=O)c1ccc(Cl)cc1`, the IC50 in assay [4] was 2000 nM; in assay [5], 1400 nM.

`Cc1ccc(Cl)c(Nc2ccccc2/C=C2\SC(=S)N(C)C2=O)c1Cl`: in assay [2], the inhibition is 32%. The inhibition result in assay [7] is “inactive”.

These data come from ChEMBL document CHEMBL1126433 (Bioorg Med Chem Lett, 1992).
